≈ marks a conversion by molar mass, not a printed value.
Experiments:
Streptococcus pyogenes = test: In vitro antibacterial activity, MIC by micro broth dilution; assay type: cell-based; conditions: read-out: MIC Spy
Excerpt: (§1) The following strains isolated in clinic were used in antibacterial activity screening in vitro: five strains of methicillin-resistant Staphylococcus aureus or MRSA, five strains of methicillin-sensitive Staphylococcus aureus or MSSA, five strains of methicillin-resistant Staphylococcus epidermidis or MRSE, five strains of methicillin-sensitive Staphylococcus epidermidis or MSSE, three strains of penicillin-resistant Streptococcus pneumoniae or PRSP, and three strains of Streptococcus pyogenes.
(§2) The above strains were clinically isolated pathogenic bacteria collected in Sichuan and Beijing in December 2015. They were identified by the collection unit via a VITEK-60 automatic microbiological identification instrument, and then re-identified by conventional methods in the laboratory. Before the experiment, each strain was purified by a single colony on an agar plate, and the cells freshly cultured at 37° C. overnight were appropriately diluted for the experiment. Quality control strain was Staphylococcus aureus ATCC25923 purchased from the Clinical Testing Center of the Ministry of Health of the People's Republic of China.
(§3) Medium: MH (Mueller-Hinton, hydrolyzed casein) broth (OXOID);
(§4) Culture condition: Incubate at 35-37° C. for 16-18 h.
(§5) The MIC value of each test sample for the tested strain was determined by micro broth dilution method recommended by Performance Standards for Antimicrobial Susceptibility Testing (Twenty-Third Informational Supplement; M02-A11, M07-A9 and M11-A8, 2013) of American Clinical and Laboratory Standards Institute (CLSI).
(§6) After diluting each test sample to different concentrations in MH broth, 100 μl of each sample solution at different concentrations was pipetted into a sterilized 96-well polystyrene plate. In the first to twelfth wells, the drug solution was added, and the final drug concentrations in each well were 64, 32, 16, 8, 4, 2, 1, 0.5, 0.25, 0.125, 0.06, and 0.03 mg/L. The well without drug and without bacteria was set as blank control well. The well with bacteria and without drug was set as a bacterial growth control well.
(§7) The test bacterial solution was adjusted with physiological saline to a bacterial suspension equivalent to 0.5 Maisson turbidity standard, and diluted 1:100 with MH broth. The drug solution was added so that the final concentration of the bacterial solution was about 10^4 CFU/ml; then 100 μl of bacterial solution was pipetted into the above wells (the total volume in each well was 200 μl). The plate was sealed and placed in a 35-37° C. incubator for 18-20 h, and then the results were determined. […] When Streptococcus pneumoniae was tested, sterile defibrillated sheep blood was added into the Colombian broth culture medium at a final concentration of 5% and cultivation was conducted in a 5% CO2 and 35-37° C. incubator for 18-20 hours.

[1] = system: methicillin-resistant Staphylococcus aureus or MRSA; test: as above; assay type: cell-based; conditions: read-out: MIC MRSA
Excerpt: as §1, §2, §3, §4, §5, §6, §7

[2] = system: methicillin-resistant Staphylococcus epidermidis or MRSE; test: as above; assay type: cell-based; conditions: read-out: MIC MRSE
Excerpt: as §1, §2, §3, §4, §5, §6, §7

[3] = system: methicillin-sensitive Staphylococcus aureus or MSSA; test: as above; assay type: cell-based; conditions: read-out: MIC MSSA
Excerpt: as §1, §2, §3, §4, §5, §6, §7

[4] = system: methicillin-sensitive Staphylococcus epidermidis or MSSE; test: as above; assay type: cell-based; conditions: read-out: MIC MSSE
Excerpt: as §1, §2, §3, §4, §5, §6, §7

[5] = system: penicillin-resistant Streptococcus pneumoniae or PRSP; test: as above; assay type: cell-based; conditions: read-out: MIC PRSP
Excerpt: as §1, §2, §3, §4, §5, §6, §7

[6] = system: MRSA, MSSA, MRSE, MSSE, PRSP, and Spy; test: In vitro antibacterial activity over the whole strain panel, compared with AZD0914; assay type: cell-based; conditions: against MRSA
Excerpt: as §1, §2, §5, §6, §7

[7] = In vivo pharmacokinetics test in mice (oral); design: species or system CD-1 mice; conditions: PO 10.0 mg/kg, plasma
Experimental: Healthy female CD-1 mice were randomly divided into five groups and each group comprised three mice. The tested compound was administered orally.
0.030 mL of blood was taken from the orbit of each animal each time and anticoagulated with EDTAK2. The collection time was as follows. PO group: 15 m, 30 mi, 1 h, 2 h, 4 h, 6 h, 8 h, and 24 h after administration of the test compound. The collected blood samples were placed on ice and centrifuged within 30 minutes to separate the plasma (centrifugation conditions: 5000 rpm, 10 minutes, room temperature). The samples were stored at −80° C. before analysis.

C[C@@H]1CN2c3c(cc4c(N5C[C@H](CF)SC5=O)noc4c3F)CC3(C(=O)NC(=O)NC3=O)[C@H]2[C@H](C)O1 [Compound 6]
MIC (Streptococcus pyogenes): 0.03 to 0.06 µg/mL (≈ 0.0575 to 0.115 µM) | MIC [1]: 0.03 to 1 µg/mL (≈ 0.0575 to 1.92 µM) | MIC [2]: 0.03 to 0.06 µg/mL (≈ 0.0575 to 0.115 µM) | MIC [3]: 0.06 to 0.125 µg/mL (≈ 0.115 to 0.24 µM) | MIC [4]: < 0.03 µg/mL | MIC [5]: 0.06 to 0.25 µg/mL (≈ 0.115 to 0.479 µM)

C=C1CN(c2noc3c(F)c4c(cc23)CC2(C(=O)NC(=O)NC2=O)[C@H]2[C@H](C)O[C@H](C)CN42)C(=O)S1 [Compound 25, (2R,4S,4aS)-11-fluoro-2,4-dimethyl-8-(5-methylene-2-oxothiazol-3-yl)-1,2,4,4a-tetrahydro-2′H,6H-spiro[isoxazole[4,5-g][1,4]oxazine[4,3-a]quinoline-5,5′-pyrimidine]-2′,4′,6′(1′H, 3′H)-trione]
MIC (Streptococcus pyogenes): < 0.03 µg/mL | MIC [1]: < 0.03 µg/mL | MIC [2]: < 0.03 µg/mL | MIC [3]: < 0.03 µg/mL | MIC [4]: < 0.03 µg/mL | MIC [5]: < 0.03 µg/mL | in vitro antibacterial activity relative to AZD0914 [6]: about 8 times

C[C@@H]1CN2c3c(cc4c(N5C(=O)SC[C@H]5C)noc4c3F)CC3(C(=O)NC(=O)NC3=O)[C@H]2[C@H](C)O1 [Compound 4, (2R,4S,4aS)-11-fluoro-2,4-dimethyl-8-((R)-4-methyl-2-oxothiazolin-3-yl)-1,2,4,4a-tetrahydro-2′H,6H-spiro[isoxazole[4,5-g][1,4]oxazine[4,3-a]quinoline-5,5′-pyrimidine]-2′,4′,6′(1′H,3′H)-trione]
MIC (Streptococcus pyogenes): 0.125 to 0.25 µg/mL (≈ 0.248 to 0.497 µM) | MIC [1]: 0.03 to 0.5 µg/mL (≈ 0.0596 to 0.993 µM) | MIC [2]: 0.03 to 0.125 µg/mL (≈ 0.0596 to 0.248 µM) | MIC [3]: 0.25 to 0.5 µg/mL (≈ 0.497 to 0.993 µM) | MIC [4]: 0.03 to 0.125 µg/mL (≈ 0.0596 to 0.248 µM) | MIC [5]: 0.25 to 1 µg/mL (≈ 0.497 to 1.99 µM)

C[C@@H]1CN2c3c(cc4c(N5C(=O)SC[C@@H]5C)noc4c3F)CC3(C(=O)NC(=O)NC3=O)[C@H]2[C@H](C)O1 [Compound 5, (2R,4S,4aS)-11-fluoro-2,4-dimethyl-8-((S)-4-methyl-2-oxothiazolin-3-yl)-1,2,4,4a-tetrahydro-2′H,6H-spiro[isoxazole[4,5-g][1,4]oxazine[4,3-a]quinoline-5,5′-pyrimidine]-2′,4′,6′(1′H,3′H)-trione]
MIC (Streptococcus pyogenes): 0.125 to 0.25 µg/mL (≈ 0.248 to 0.497 µM) | MIC [1]: 0.03 to 0.25 µg/mL (≈ 0.0596 to 0.497 µM) | MIC [2]: 0.06 to 0.25 µg/mL (≈ 0.119 to 0.497 µM) | MIC [3]: 0.25 to 0.5 µg/mL (≈ 0.497 to 0.993 µM) | MIC [4]: 0.03 to 0.125 µg/mL (≈ 0.0596 to 0.248 µM) | MIC [5]: 0.125 to 1 µg/mL (≈ 0.248 to 1.99 µM)

C[C@@H]1CN2c3c(cc4c(N5C[C@H](CN=[N+]=[N-])SC5=O)noc4c3F)CC3(C(=O)NC(=O)NC3=O)[C@H]2[C@H](C)O1 [Compound 10, (2R,4S,4aS)-8-((R)-5-(azidomethyl)-2-oxothiazol-3-yl)-11-fluoro-2,4-dimethyl-1,2,4,4a-tetrahydro-2′H,6H-spiro[isoxazole[4,5-g][1,4]oxazine[4,3-a]quinoline-5,5′-pyrimidine]-2′,4′,6′(1′H,3′H)-trione]
MIC (Streptococcus pyogenes): 0.125 to 1 µg/mL (≈ 0.23 to 1.84 µM) | MIC [1]: 0.25 to 0.5 µg/mL (≈ 0.459 to 0.918 µM) | MIC [2]: 0.03 to 0.125 µg/mL (≈ 0.0551 to 0.23 µM) | MIC [3]: 0.06 to 0.25 µg/mL (≈ 0.11 to 0.459 µM) | MIC [4]: 0.03 to 0.25 µg/mL (≈ 0.0551 to 0.459 µM) | MIC [5]: 0.125 µg/mL (≈ 0.23 µM)

C[C@@H]1CN2c3c(cc4c(N5C[C@@H](C)SC5=O)noc4c3F)CC3(C(=O)NC(=O)NC3=O)[C@H]2[C@H](C)O1 [Compound 3, (2R,4S,4aS)-11-fluoro-2,4-dimethyl-8-((R)-5-methyl-2-oxothiazolin-3-yl)-1,2,4,4a-tetrahydro-2′H,6H-spiro[isoxazole[4,5-g][1,4]oxazine[4,3-a]quinoline-5,5′-pyrimidine]-2′,4′,6′(1′H,3′H)-trione]
MIC (Streptococcus pyogenes): < 0.03 µg/mL | MIC [1]: 0.03 to 0.25 µg/mL (≈ 0.0596 to 0.497 µM) | MIC [2]: 0.03 to 0.06 µg/mL (≈ 0.0596 to 0.119 µM) | MIC [3]: 0.03 to 0.125 µg/mL (≈ 0.0596 to 0.248 µM) | MIC [4]: 0.03 to 0.06 µg/mL (≈ 0.0596 to 0.119 µM) | MIC [5]: 0.03 µg/mL (≈ 0.0596 µM) | AUC0→t [7]: 12034 ± 2835 ng·h/mL | Cmax [7]: 2188 ± 223 ng/mL | MRT [7]: 4.85 ± 0.99 h | t1/2 [7]: 2.70 ± 0.143 h | Tmax ([7]; female, CD-1, mouse, read-out: Tmax): 0.583 ± 0.382 h

— patent publication US11180509B2, “Thiazolidone spiro pyrimidine trione compound, preparation method therefor and uses thereof” (SHANGHAI INSTITUTE OF MATERIA MEDICA, CHINESE ACADEMY OF …, priority 2017, dated 2021)
